From patent US20230022157A1 (Achillion Pharmaceuticals, Inc., priority 2018, published 2023)

These compounds were tested against T1, Human Factor D (Homo sapiens, UniProt P00746) (assay: Human Factor D Assay). Conditions: Human Factor D 80 nM, substrate Z-L-Lys-SBzl; Table 2; read-out: IC50 (Stars).
T1 construct: purified from human serum; purchased Complement Technology, Inc; host or cells: human serum (natural protein, not recombinant)
T1 sequence (P00746 26-253): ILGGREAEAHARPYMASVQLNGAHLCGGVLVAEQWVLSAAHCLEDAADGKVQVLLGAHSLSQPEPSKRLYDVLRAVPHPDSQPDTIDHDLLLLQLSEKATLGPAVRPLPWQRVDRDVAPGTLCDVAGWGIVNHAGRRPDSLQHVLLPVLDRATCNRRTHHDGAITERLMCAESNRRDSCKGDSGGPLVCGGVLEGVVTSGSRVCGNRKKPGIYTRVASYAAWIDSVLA
Format: biochemical
Procedure, shortened: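 Serum-purified human factor D (80 nM final) preincubated 5 min at room temperature with test compound in 50 mM Tris, 1M NaCl, pH 7.5. Z-L-Lys-SBzl substrate and DTNB then added, each at 100 μM final. IC50 from nonlinear regression of reaction rate against compound concentration.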
`CC(=O)c1nn(CC(=O)N2[C@H](C(=O)NCCC3CC3)C[C@@]3(C)C[C@@H]23)c2c(C)cc(-c3cnc(C)nc3)cc12` [Compound 105, (1R,3S,5R)-2-{2-[3-acetyl-7-methyl-5-(2-methylpyrimidin-5-yl)indazol-1-yl]acetyl}-N-(2-cyclopropylethyl)-5-methyl-2-azabicyclo[3.1.0]hexane-3-carboxamide] was tested, and the IC50 was < 1000 nM.
For `CC(=O)c1nn(CC(=O)N2[C@H](C(=O)NCCc3cc[nH]n3)C[C@@]3(C)C[C@@H]23)c2c(C)cc(-c3cnc(C)nc3)cc12` [Compound 106, (1R,3S,5R)-2-{2-[3-acetyl-7-methyl-5-(2-methylpyrimidin-5-yl)indazol-1-yl]acetyl}-5-methyl-N-[2-(1H-pyrazol-3-yl)ethyl]-2-azabicyclo[3.1.0]hexane-3-carboxamide], the IC50 was < 1000 nM.
With `COCCOC[C@@]12C[C@@H](C(=O)Nc3nc(Br)ccc3C)N(C(=O)Cn3nc(C(C)=O)c4cc(-c5cnc(C)nc5)cc(C)c43)[C@@H]1C2` [Compound 107, (1R,3S,5S)-2-(2-(3-acetyl-7-methyl-5-(2-methylpyrimidin-5-yl)-1H-indazol-1-yl)acetyl)-N-(6-bromo-3-methylpyridin-2-yl)-5-((2-methoxyethoxy)methyl)-2-azabicyclo[3.1.0]hexane-3-carboxamide] the IC50 was < 1000 nM.
`COCCOC[C@@]12C[C@@H](C(=O)Nc3nc(Br)ccc3C)N(C(=O)Cn3nc(C(C)=O)c4cc(-c5cnc(CO)nc5)cc(C)c43)[C@@H]1C2` [Compound 108, (1R,3S,5S)-2-(2-(3-acetyl-5-(2-(hydroxymethyl)pyrimidin-5-yl)-7-methyl-1H-indazol-1-yl)acetyl)-N-(6-bromo-3-methylpyridin-2-yl)-5-((2-methoxyethoxy)methyl)-2-azabicyclo[3.1.0]hexane-3-carboxamide] showed an IC50 of 1000 to 10000 nM.
For `CC(=O)c1nn(CC(=O)N2[C@H](C(=O)Nc3cncc(Br)n3)C[C@@]3(C)C[C@@H]23)c2c(C)cc(-c3cnc(C(C)O)nc3)cc12` (stereo partly drawn) [Compound 109, (1R,3S,5R)-2-(2-(3-acetyl-5-(2-(1-hydroxyethyl)pyrimidin-5-yl)-7-methyl-11H-indazol-1-yl)acetyl)-N-(6-bromopyrazin-2-yl)-5-methyl-2-azabicyclo[3.1.0]hexane-3-carboxamide], the IC50 was < 1000 nM.
For `CC(=O)c1nn(CC(=S)N2C[C@H](F)C[C@H]2C(=O)Nc2cccc(Br)n2)c2ccc(-c3cnc(C)nc3)cc12` [Compound 110, 1-{2-[3-Acetyl-5-(2-methyl-pyrimidin-5-yl)-indazol-1-yl]-thioacetyl}-4-fluoro-pyrrolidine-2-carboxylic acid (6-bromo-pyridin-2-yl)-amide], the IC50 was 1000 to 10000 nM.
For `Cc1ncc(-c2cc3c(C(N)=O)nn(CC(=O)N4C[C@H]5C[C@H]5[C@H]4C(=O)Nc4nc(Br)c(F)cc4C)c3c(C)n2)cn1` [Compound 111, 1-{2-[2-(6-Bromo-5-fluoro-3-methyl-pyridin-2-ylcarbamoyl)-3-aza-bicyclo[3.1.0]hex-3-yl]-2-oxo-ethyl}-7-methyl-5-(2-methyl-pyrimidin-5-yl)-1H-pyrazolo[3,4-c]pyridine-3-carboxylic acid amide], the IC50 was < 1000 nM.
With `Cc1ncc(-c2cc3c(C(N)=O)nn(CC(=O)N4[C@H](C(=O)Nc5nc(Br)ccc5C5CC5)C[C@@]5(C)C[C@@H]45)c3c(C)n2)cn1` [Compound 112, 1-{2-[3-(6-Bromo-3-cyclopropyl-pyridin-2-ylcarbamoyl)-5-methyl-2-aza-bicyclo[3.1.0]hex-2-yl]-2-oxo-ethyl}-7-methyl-5-(2-methyl-pyrimidin-5-yl)-1H-pyrazolo[3,4-c]pyridine-3-carboxylic acid amide] the IC50 was < 1000 nM.
In the case of `COc1cc(Br)nc(NC(=O)[C@@H]2C[C@@]3(C)C[C@H]3N2C(=O)Cn2nc(C(N)=O)c3cc(-c4cnc(C)nc4)nc(C)c32)c1` [Compound 113, 1-(2-((1R,3S,5R)-3-((6-bromo-4-methoxypyridin-2-yl)carbamoyl)-5-methyl-2-azabicyclo[3.1.0]hexan-2-yl)-2-oxoethyl)-7-methyl-5-(2-methylpyrimidin-5-yl)-1H-pyrazolo[3,4-c]pyridine-3-carboxamide], the IC50 is reported as < 1000 nM.
For `CCCC(C)(C)CNC(=O)[C@@H]1C[C@@]2(C)C[C@H]2N1C(=O)Cn1nc(C(C)=O)c2cc(-c3cnc(C)nc3)cc(C)c21` [Compound 116, (1R,3S,5R)-2-{2-[3-acetyl-7-methyl-5-(2-methylpyrimidin-5-yl)indazol-1-yl]acetyl}-N-(2,2-dimethylpentyl)-5-methyl-2-azabicyclo[3.1.0]hexane-3-carboxamide], the IC50 was < 1000 nM.
For `CC(=O)c1nn(CC(=O)N2[C@H](C(=O)NCC3CCc4ccccc4C3)C[C@@]3(C)C[C@@H]23)c2c(C)cc(-c3cnc(C)nc3)cc12` (stereo partly drawn) [Compound 117, (1R,3S,5R)-2-{2-[3-acetyl-7-methyl-5-(2-methylpyrimidin-5-yl)indazol-1-yl]acetyl}-5-methyl-N-(1,2,3,4-tetrahydronaphthalen-2-ylmethyl)-2-azabicyclo[3.1.0]hexane-3-carboxamide], the IC50 was < 1000 nM.
With `CC(=O)c1nn(CC(=O)N2[C@H](C(=O)Nc3nc(Br)c(F)cc3C)C[C@@]3(C)C[C@@H]23)c2c(C)cc(-c3ccc(CO)nc3)cc12` [Compound 118, (1R,3S,5R)-2-(2-(3-acetyl-5-(6-(hydroxymethyl)pyridin-3-yl)-7-methyl-1H-indazol-1-yl)acetyl)-N-(6-bromo-5-fluoro-3-methylpyridin-2-yl)-5-methyl-2-azabicyclo[3.1.0]hexane-3-carboxamide] the IC50 was < 1000 nM.
With `CC(=O)c1nn(CC(=O)N2[C@H](C(=O)Nc3cncc(Br)n3)C[C@@]3(C)C[C@@H]23)c2c(C)cc(-c3ccc(CO)nc3)cc12` [Compound 119, (1R,3S,5R)-2-(2-(3-acetyl-5-(6-(hydroxymethyl)pyridin-3-yl)-7-methyl-1H-indazol-1-yl)acetyl)-N-(6-bromopyrazin-2-yl)-5-methyl-2-azabicyclo[3.1.0]hexane-3-carboxamide] the IC50 was < 1000 nM.
For `CC(=O)c1nn(CC(=O)N2[C@H](C(=O)Nc3ccc(F)c(Br)n3)C[C@@]3(C)C[C@@H]23)c2c(C)cc(-c3cnc(CO)nc3)cc12` [Compound 120, (1R,3S,5R)-2-(2-(3-acetyl-5-(2-(hydroxymethyl)pyrimidin-5-yl)-7-methyl-1H-indazol-1-yl)acetyl)-N-(6-bromo-5-fluoropyridin-2-yl)-5-methyl-2-azabicyclo[3.1.0]hexane-3-carboxamide], the IC50 was < 1000 nM.
In the case of `CC(=O)c1nn(CC(=O)N2[C@H](C(=O)Nc3nc(Br)ccc3C)C[C@@]3(C)C[C@@H]23)c2ccc(-c3cncc(S(C)(=O)=O)c3)cc12` [Compound 121, (1R,3S,5R)-2-(2-(3-Acetyl-5-(5-(methylsulfonyl)pyridin-3-yl)-1H-indazol-1-yl)acetyl)-N-(6-bromo-3-methylpyridin-2-yl)-5-methyl-2-azabicyclo[3.1.0]hexane-3-carboxamide], the IC50 is reported as < 1000 nM.
`CC(=O)c1nn(CC(=O)N2[C@H]3CC[C@H](C3)[C@H]2C(=O)Nc2nc(Br)c(F)cc2C)c2c(C3CC3)cc(-c3cnc(C)nc3)cc12` [Compound 122, (1S,3S,4R)-2-(2-(3-Acetyl-7-cyclopropyl-5-(2-methylpyrimidin-5-yl)-1H-indazol-1-yl)acetyl)-N-(6-bromo-5-fluoro-3-methylpyridin-2-yl)-2-azabicyclo[2.2.1]heptane-3-carboxamide] was tested, and the IC50 was < 1000 nM.
